Here are results for 21 compounds from ChEMBL document CHEMBL6182928, “Characterization of Hepatotropic Small Molecule Inhibitors of Hypoxia Inducible Factor Prolyl Hydroxylase in the Prevention of Oxygen-Induced Retinopathy” (J Med Chem, 2025).

The target in assay [1] is Hypoxia-inducible factor 1-alpha (Homo sapiens) (UniProt Q16665). Briefly: Induction of stabilization of HIF-1alpha in human Hep3B cells by measuring fold change protein level at 500 uM incubated for 3 hrs by Western blot analysis. Format: cell-based.
Assay [2] has as its target Hypoxia-inducible factor 1-alpha (Mus musculus) (UniProt Q61221). Briefly: Induction of stabilization of HIF-1alpha in mouse NIH-3T3-HIF/Luc cells assessed as activation of HRE by measuring […] at 500 uM incubated for 24 hrs by Bright-glo luciferase assay. Format: cell-based.
Assay [3] deals with Hypoxia-inducible factor 1-alpha (Homo sapiens) (UniProt Q16665). Briefly: Induction of stabilization of HIF-1alpha in human Hep3B cells incubated for 24 hrs by Immunoblot analysis. In kind it is cell-based.
The target in assay [4] is Hypoxia-inducible factor 1-alpha (Mus musculus) (UniProt Q61221). Briefly: Induction of stabilization of HIF-1alpha in mouse NIH-3T3-HIF/Luc cells assessed as activation of HRE at 1 mM incubated for 24 hrs by Bright-glo luciferase assay. In kind it is cell-based.
For assay [5], the target named is Hypoxia-inducible factor 1-alpha (Homo sapiens) (UniProt Q16665). Kind of assay: Induction of stabilization of HIF-1alpha in human Hep3B cells at 1 mM measured at 3 to 6 hrs by Immunoblot analysis. Format: cell-based. The conditions noted are these: time 3-6 hrs.
Assay [6] concerns the target Hypoxia-inducible factor 1-alpha (Mus musculus) (UniProt Q61221). Briefly: Induction of stabilization of HIF-1alpha in mouse NIH-3T3-HIF/Luc cells assessed as activation of HRE measured at 24 hrs by Bright-glo luciferase assay. Format: cell-based.
In assay [7] the target is Hypoxia-inducible factor 1-alpha (Homo sapiens) (UniProt Q16665). Briefly: Induction of stabilization of HIF-1alpha in human Hep3B cells at 1 to 4 mM measured at 24 hrs by Immunoblot analysis. Format: cell-based. Particulars: dose 1-4 mM.
Assay [8] has as its target Hypoxia-inducible factor 1-alpha (Mus musculus) (UniProt Q61221). Briefly: Induction of stabilization of HIF-1alpha in mouse NIH-3T3-HIF/Luc cells assessed as activation of HRE at 1 to 4 mM measured at 48 hrs by Bright-glo luciferase assay. In kind it is cell-based. Particulars: dose 1-4 mM.
Assay [9] has as its target Hypoxia-inducible factor 1-alpha (Homo sapiens) (UniProt Q16665). Kind of assay: Induction of stabilization of HIF-1alpha in human Hep3B cells measured at 3 hrs by Western blot analysis. In kind it is cell-based.
For assay [10], the system named is Mus musculus. Kind of assay: In vivo inhibition of PHD in Luc-ODD mouse model assessed as stabilization of HIF-1alpha in kidney at 1 mM, ip single dose on postnatal day 8 measured after 3 hrs by Bright-glo luciferase assay. Format: functional, organism-based.
The subject of assay [11] is Mus musculus. Kind of assay: In vivo inhibition of PHD in Luc-ODD mouse model assessed as stabilization of HIF-1alpha in liver at 1 mM, ip single dose on postnatal day 8 measured after 3 hrs by Bright-glo luciferase assay. In kind it is functional, organism-based.
In assay [12] the test system is Mus musculus. Briefly: In vivo inhibition of PHD in Luc-ODD mouse model assessed as stabilization of HIF-1alpha in liver at 1 mM, ip single dose on postnatal day 7 measured after 24 hrs by Bright-glo luciferase assay. Format: functional, organism-based.
Assay [13] concerns Mus musculus. Kind of assay: In vivo inhibition of PHD in Luc-ODD mouse model assessed as stabilization of HIF-1alpha in brain at 1 mM, ip single dose on postnatal day 7 measured at 3 to 24 hrs by Bright-glo luciferase assay. Format: functional, organism-based. Particulars: time 3-24 hrs.
In assay [14] the test system is Mus musculus. Briefly: Protection against oxygen-induced retinopathy in wild type C57BL/6J mouse pup assessed as reduction in retinal vaso-obliteration at 1 mmol/Kg, ip administered on postnatal day 6, 8, 10 and reared in 75% oxygen exposure on postnatal day 7 to day 12 and measured on postnatal day 17 by lectin based staining analysis. In kind it is functional, organism-based. Particulars: time 12.0 day.

The test system of assay [15] is Mus musculus. Briefly: Protection against oxygen-induced retinopathy in wild type C57BL/6J mouse pup assessed as reduction in retinal neovascularization at 1 mmol/Kg, ip administered on postnatal day 6, 8, 10 and reared in 75% oxygen exposure on postnatal day 7 to day 12 and measured on postnatal day 17 by lectin based staining analysis. In kind it is functional, organism-based. Particulars: time 12.0 day.

The subject of assay [16] is Mus musculus. Kind of assay: Protection against oxygen-induced retinopathy in liver-specific HIF knockout (LHKO) mouse pup assessed as reduction in retinal vaso-obliteration at 1 mmol/Kg, ip administered on postnatal day 6, 8, 10 and reared in 75% oxygen exposure on postnatal day 7 to day 12 and measured on postnatal day 17 by lectin based staining analysis. In kind it is functional, organism-based. Particulars: time 12.0 day.

The subject of assay [17] is Mus musculus. Briefly: Protection against oxygen-induced retinopathy in wild type C57BL/6J mouse pup assessed as reduction in avascular retina at 1 mmol/Kg, ip administered on postnatal day 6, 8, 10 and reared in 75% oxygen exposure on postnatal day 7 to day 12 and measured on postnatal day 17 by lectin based staining analysis. The conditions noted are these: time 12.0 day. In kind it is functional, organism-based.

The subject of assay [18] is Mus musculus. Kind of assay: Effect on myelination in oxygen-induced hypomyelination mouse pup model assessed as effect on myelin basic protein level in brain administered as ip dose on postnatal day 3, 5, 7 and reared in 80% oxygen exposure on postnatal day 4 to day 8 and measured on postnatal day 11 by Western blot analysis. In kind it is functional, organism-based. The conditions noted are these: time 9.0 day.

In assay [19] the test system is Mus musculus. Briefly: Effect on myelination in oxygen-induced hypomyelination mouse pup model assessed as effect on HIF-1alpha level in brain administered as ip dose on postnatal day 3, 5, 7 and reared in 80% oxygen exposure on postnatal day 4 to day 8 and measured on postnatal day 11 by Western blot analysis. In kind it is functional, organism-based. The conditions noted are these: time 9.0 day.

For assay [20], the system named is Mus musculus. Kind of assay: Protection against oxygen-induced hypomyelination in mouse pup assessed as increase in serpine1 mRNA level in liver administered as ip dose on postnatal day 3, 5, 7 and reared in 80% oxygen exposure on postnatal day 4 to day 8 and measured on postnatal day 11. The conditions noted are these: time 9.0 day. Format: functional, organism-based.

The test system of assay [21] is Mus musculus. Kind of assay: Protection against oxygen-induced hypomyelination in mouse pup assessed as increase in vegf mRNA level in liver administered as ip dose on postnatal day 3, 5, 7 and reared in 80% oxygen exposure on postnatal day 4 to day 8 and measured on postnatal day 11. In kind it is functional, organism-based. The conditions noted are these: time 9.0 day.

Assay [22] has as its system Mus musculus. Briefly: Protection against oxygen-induced hypomyelination in mouse pup assessed as increase in Bnip3 mRNA level in liver administered as ip dose on postnatal day 3, 5, 7 and reared in 80% oxygen exposure on postnatal day 4 to day 8 and measured on postnatal day 11. Particulars: time 9.0 day. In kind it is functional, organism-based.
Assay [23] relates to Mus musculus. Kind of assay: Protection against oxygen-induced hypomyelination in mouse pup assessed as increase in Cox4i2 mRNA level in liver administered as ip dose on postnatal day 3, 5, 7 and reared in 80% oxygen exposure on postnatal day 4 to day 8 and measured on postnatal day 11. Format: functional, organism-based. Particulars: time 9.0 day.
In assay [24] the test system is Mus musculus. Kind of assay: Protection against oxygen-induced retinopathy in mouse pup assessed as astrocyte survival administered as ip dose on postnatal day 6, 8, 10 and reared in 75% oxygen exposure on postnatal day 7 to day 12 and measured on postnatal day 17 by isolectin/GFAP based staining analysis. Particulars: time 12.0 day. In kind it is functional, organism-based.

In assay [25] the test system is Mus musculus. Briefly: Protection against oxygen-induced retinopathy in mouse pup assessed as glia preservation in total retinal flat mount administered as ip dose on postnatal day 6, 8, 10 and reared in 75% oxygen exposure on postnatal day 7 to day 12 and measured on postnatal day 17 by isolectin/GFAP based staining analysis. In kind it is functional, organism-based. The conditions noted are these: time 12.0 day.

The test system of assay [26] is Mus musculus. Briefly: Protection against oxygen-induced hypomyelination in mouse pup assessed as increase in bipolar cell activity by measuring amplitude of ERG b-wave administered as ip dose on postnatal day 3, 5, 7 and reared in 80% oxygen exposure on postnatal day 4 to day 8 and measured on postnatal day 11 by electroretinogram analysis. Format: functional, organism-based. The conditions noted are these: time 9.0 day.

Calls of active or inactive are those of the source. The calls are words filed in the database; no cut-off is given here.

Chain of Hypoxia-inducible factor 1-alpha (Mus musculus) (Q61221 whole entry): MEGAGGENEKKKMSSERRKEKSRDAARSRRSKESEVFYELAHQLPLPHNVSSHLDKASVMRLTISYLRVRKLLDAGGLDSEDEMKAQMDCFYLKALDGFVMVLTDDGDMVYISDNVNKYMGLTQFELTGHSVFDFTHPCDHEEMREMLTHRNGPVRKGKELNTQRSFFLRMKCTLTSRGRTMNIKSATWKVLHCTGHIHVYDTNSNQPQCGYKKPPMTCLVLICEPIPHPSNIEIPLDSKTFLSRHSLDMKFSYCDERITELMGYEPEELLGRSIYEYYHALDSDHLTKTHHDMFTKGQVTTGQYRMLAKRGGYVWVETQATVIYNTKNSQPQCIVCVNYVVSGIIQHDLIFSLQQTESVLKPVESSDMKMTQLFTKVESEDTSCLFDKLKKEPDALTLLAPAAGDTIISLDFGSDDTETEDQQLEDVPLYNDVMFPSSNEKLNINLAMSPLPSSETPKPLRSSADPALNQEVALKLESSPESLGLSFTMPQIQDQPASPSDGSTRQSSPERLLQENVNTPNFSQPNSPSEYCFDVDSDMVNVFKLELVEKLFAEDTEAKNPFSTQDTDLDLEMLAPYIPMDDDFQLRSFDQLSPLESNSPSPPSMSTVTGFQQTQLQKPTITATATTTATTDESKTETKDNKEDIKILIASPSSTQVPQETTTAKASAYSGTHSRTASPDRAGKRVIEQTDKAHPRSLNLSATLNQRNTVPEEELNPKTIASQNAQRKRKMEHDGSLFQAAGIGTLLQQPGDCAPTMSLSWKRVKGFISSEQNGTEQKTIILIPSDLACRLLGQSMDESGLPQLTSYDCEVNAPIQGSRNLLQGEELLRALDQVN
Chain of Hypoxia-inducible factor 1-alpha (Homo sapiens) (Q16665 whole entry, looked up): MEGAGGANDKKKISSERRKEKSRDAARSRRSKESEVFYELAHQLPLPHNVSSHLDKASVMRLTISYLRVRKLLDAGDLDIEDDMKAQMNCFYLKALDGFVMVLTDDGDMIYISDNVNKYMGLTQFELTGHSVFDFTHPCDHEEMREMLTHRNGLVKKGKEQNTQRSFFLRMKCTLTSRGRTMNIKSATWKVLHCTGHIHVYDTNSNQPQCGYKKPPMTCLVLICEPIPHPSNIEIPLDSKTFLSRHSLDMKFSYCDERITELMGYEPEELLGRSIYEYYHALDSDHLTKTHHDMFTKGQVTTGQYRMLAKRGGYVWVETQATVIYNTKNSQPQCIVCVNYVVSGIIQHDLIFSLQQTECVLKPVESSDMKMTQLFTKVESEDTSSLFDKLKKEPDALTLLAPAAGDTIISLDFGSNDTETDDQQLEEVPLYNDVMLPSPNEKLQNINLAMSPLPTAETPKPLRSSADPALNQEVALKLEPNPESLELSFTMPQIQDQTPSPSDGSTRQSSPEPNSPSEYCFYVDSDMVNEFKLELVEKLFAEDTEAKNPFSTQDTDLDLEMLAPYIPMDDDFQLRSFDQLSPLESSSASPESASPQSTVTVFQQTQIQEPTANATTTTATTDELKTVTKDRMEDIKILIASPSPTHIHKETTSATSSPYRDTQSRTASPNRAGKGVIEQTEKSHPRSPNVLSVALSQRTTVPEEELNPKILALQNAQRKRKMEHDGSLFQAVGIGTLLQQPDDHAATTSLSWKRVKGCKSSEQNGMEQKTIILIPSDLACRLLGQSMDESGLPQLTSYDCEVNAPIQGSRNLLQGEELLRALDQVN

On to `COC(=O)C(=O)NCC(=O)OC(C)OC(=O)C(C)C` (centres undefined), for which the fold change (FC) in [1] is 7; in [2], < 2.
`CCC(=O)OCOC(=O)CNC(=O)C(=O)OC`: the values for the fold change (FC) in assay [1] and in assay [2] were 1 and < 1, respectively.
The matching figures for `CCOC(=O)OCOC(=O)CNC(=O)C(=O)OC`: < 1 and < 1.
Take `COC(=O)C(=O)NCC(=O)OCOC(=O)C(C)(C)C`: the results for the fold change (FC) in assay [1] and in [2] were 1 and < 1, respectively.
For `COC(=O)C(=O)NCC(=O)OC(C)OC(=O)Oc1ccccc1` (centres undefined) the same measures were 5 and < 2.
For `COC(=O)OCOC(=O)CNC(=O)C(=O)OC` the same measures were < 1 and < 1.
In the case of `COC(=O)C(=O)NCC(=O)OCOC(=O)C(C)C`, the fold change (FC) in assay [1] and in [2] was < 1 in each case.
For the compound `COC(=O)C(=O)NCC(=O)OCOC(C)=O`, the fold change (FC) is 2 in assay [1] and < 1 in assay [2].
The matching figures for `COC(=O)C(=O)NCC(=O)OCOC(=O)c1ccccc1`: 3 and < 2.
For `COC(=O)C(=O)NCC(=O)OC(C)OC(=O)C(C)(C)C` (centres undefined) the same measures were 6 and < 2.
The matching figures for `COC(=O)C(=O)NCC(=O)OC(C)OC(=O)OC(C)C` (centres undefined): 3 and < 2.
As for `COC(=O)C(=O)NCC(=O)OC(C)OC(C)=O` (centres undefined), the fold change (FC) in assay [1] is 6; in assay [2], < 2.
The matching figures for `COC(=O)C(=O)NCC(=O)OCOC(=O)OC(C)C`: < 1 and < 1.
Regarding `COC(=O)C(=O)NCC(=O)OC(C)OC(=O)OC(C)(C)C` (centres undefined), the fold change (FC) in [1] was 2; in assay [2], < 2.
For `COC(=O)C(=O)NCC(=O)OCOC(=O)OC(C)(C)C` the same measures were < 1 and < 1.
On to `COC(=O)C(=O)NCC(=O)OCOC(=O)Oc1ccccc1`, for which the fold change (FC) in assay [1] and in assay [2] was < 1 each time.
`COC(=O)C(=O)NCC(=O)OC(C)C`: the result (in assay [3]; in assay [4]; in assay [5]; in the assay on Mus musculus [10]; with Mus musculus [11]; with Mus musculus [12]) was Active. Besides, the result in the assay with Mus musculus [14], in the assay with Mus musculus [15], with Mus musculus [17], with Mus musculus [24], in the assay with Mus musculus [25] and with Mus musculus [26] was Active. In addition, the ED50 was 1140 µM in assay [6] and 2130 µM in assay [9]. The result (in [7]; in assay [8]; in the assay on Mus musculus [13]; with Mus musculus [18]; in the assay on Mus musculus [19]) was inactive. Also, the Activity result in the assay on Mus musculus [16] is “Active; Less Protected Compared To Compound Treated Wild-Type Mouse”; in the assay with Mus musculus [20], “Active; Compound Showed Higher Mrna Expression In Liver Compared To Brain”; in the assay with Mus musculus [21], “Active; Compound Showed Higher Mrna Expression In Liver Compared To Brain”; in the assay on Mus musculus [22] it was “Active; Compound Showed Higher Mrna Expression In Liver Compared To Brain”; with Mus musculus [23] it was “Active; Compound Showed Higher Mrna Expression In Liver Compared To Brain”.
In the case of `CCC(=O)OC(C)OC(=O)CNC(=O)C(=O)OC` (centres undefined), the fold change (FC) in assay [1] is 4; in assay [2], < 2.
The matching figures for `COC(=O)OC(C)OC(=O)CNC(=O)C(=O)OC` (centres undefined): 3 and < 2.
For the compound `COC(=O)C(=O)NCC(=O)OC(C)OC(=O)c1ccccc1` (centres undefined), the results for the fold change (FC) in [1] and in assay [2] were 5 and < 2, respectively.
Take `CCOC(=O)OC(C)OC(=O)CNC(=O)C(=O)OC` (centres undefined): the fold change (FC) in assay [1] was 3; in [2] it was < 2.
